What follows are compounds tested on Endogenous Huntingtin Protein (capture with MW1 (expanded polyglutamine) or MAB2166 antibody) (assay: Endogenous Huntingtin Protein Assay (ELISA-based Meso Scale Discovery electrochemiluminescence assay)). Details: MSD electrochemiluminescence platform.
Assay type: cell-based
Summary of the method: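 MSD electrochemiluminescence sandwich immunoassay: plates coated with 1 μg/mL MW1 or MAB2166 capture antibody, samples incubated overnight at 4 °C. Detection with rabbit monoclonal #5656S then SULFO-TAG anti-rabbit (each 0.25 μg/mL, 1 h RT).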

Compound	IC50 [nM]
2-(6-{[(3R,4S)-3-fluoro-2,2,6,6-tetramethylpiperidin-4-yl]oxy}pyridazin-3-yl)-5-(2-methylimidazo[1,2-a]pyridin-6-yl)pyridin-3-ol and 2-(6-{[(3S,4R)-3-fluoro-2,2,6,6-tetramethylpiperidin-4-yl]oxy}pyridazin-3-yl)-5-(2-methylimidazo[1,2-a]pyridin-6-yl)pyridin-3-ol [Compound 43]	≤ 100
CC[C@H]1CN(c2ccc(-c3ncc(-c4cn[nH]c4)cc3O)nn2)CCN1 [Compound 132, 2-{6-[(3S)-3-ethylpiperazin-1-yl]pyridazin-3-yl}-5-(1H-pyrazol-4-yl)pyridin-3-ol]	≤ 100
CC1(C)C[C@@H](Oc2ccc(-c3ncc(-c4cn[nH]c4)cc3O)nn2)[C@@H](F)C(C)(C)N1 (single isomer, unassigned) [Compound 39, 2-(6-{[(3S,4R)-3-fluoro-2,2,6,6-tetramethylpiperidin-4-yl]oxy}pyridazin-3-yl)-5-(1H-pyrazol-4-yl)pyridin-3-ol or 2-(6-{[(3S,4R)-3-fluoro-2,2,6,6-tetramethylpiperidin-4-yl]oxy}pyridazin-3-yl)-5-(1H-pyrazol-4-yl)pyridin-3-ol]	≤ 100
CN(c1ccc(-c2ncc(-c3ncco3)cc2O)nn1)C1CC(C)(C)NC(C)(C)C1 [Compound 14, 2-{6-[methyl(2,2,6,6-tetramethylpiperidin-4-yl)amino]pyridazin-3-yl}-5-(1,3-oxazol-2-yl)pyridin-3-ol]	≤ 100
CCC1CN(c2ccc(-c3ncc(-c4cn[nH]c4)cc3O)nn2)CCN1 (centres unmarked) [Compound 119, 2-[6-(3-ethylpiperazin-1-yl)pyridazin-3-yl]-5-(1H-pyrazol-4-yl)pyridin-3-ol]	≤ 100
CN(c1ncc(-c2ncc(-c3cn[nH]c3F)cc2O)nn1)C1CC(C)(C)NC(C)(C)C1 [Compound 143, 5-(5-fluoro-1H-pyrazol-4-yl)-2-{3-[methyl(2,2,6,6-tetramethylpiperidin-4-yl)amino]-1,2,4-triazin-6-yl}pyridin-3-ol]	100 to 500
C[C@]12CC[C@](C)(C[C@@H](Oc3ccc(-c4ncc(-n5nccn5)cc4O)nn3)C1)N2 [Compound 32, 2-(6-{[(1R,3s,5S)-1,5-dimethyl-8-azabicyclo[3.2.1]octan-3-yl]oxy}pyridazin-3-yl)-5-(2H-1,2,3-triazol-2-yl)pyridin-3-ol and 2-(6-{[(1S,3r,5R)-1,5-dimethyl-8-azabicyclo[3.2.1]octan-3-yl]oxy}pyridazin-3-yl)-5-(2H-1,2,3-triazol-2-yl)pyridin-3-ol]	≤ 100
CC1(C)C[C@H](Oc2ccc(-c3ncc(-c4cn[nH]c4)cc3O)nn2)[C@H](F)C(C)(C)N1[O] [Compound 102, [(3R,4S)-3-fluoro-4-({6-[3-hydroxy-5-(1H-pyrazol-4-yl)pyridin-2-yl]pyridazin-3-yl}oxy)-2,2,6,6-tetramethylpiperidin-1-yl]oxidanyl]	500 to 1000
CN(c1ccc(-c2ncc(-c3cc(F)c4nn(C)cc4c3)cc2O)nn1)C1CC(C)(C)NC2(CC2)C1 (centres unmarked) [Compound 64, 2-{6-[(5,5-dimethyl-4-azaspiro[2.5]octan-7-yl)(methyl)amino]pyridazin-3-yl}-5-(7-fluoro-2-methyl-2H-indazol-5-yl)pyridin-3-ol]	≤ 100
2-(6-{[(1R,3s,5S)-1,5-dimethyl-8-azabicyclo[3.2.1]octan-3-yl]oxy}pyridazin-3-yl)-5-(1H-1,2,3-triazol-1-yl)pyridin-3-ol and 2-(6-{[(1S,3r,5R)-1,5-dimethyl-8-azabicyclo[3.2.1]octan-3-yl]oxy}pyridazin-3-yl)-5-(1H-1,2,3-triazol-1-yl)pyridin-3-ol [Compound 71]	100 to 500
CN1CCN(c2ncc(-c3ncc(-c4cn[nH]c4)cc3O)nn2)CC1 [Compound 152, 2-[3-(4-methylpiperazin-1-yl)-1,2,4-triazin-6-yl]-5-(1H-pyrazol-4-yl)pyridin-3-ol]	500 to 1000
